According to patent publication US20240051914A1, “THE HEXADECANE TROMETHAMINE COMPOUND, ITS SYNTHESIS METHOD AND ITS APPLICATION IN ANTITUMOR AND ANTIFUNGAL ASPECTS” (Wuxi No.2 People's Hospital, priority 2021, published 2024):
In brackets after ≈: the same amount, converted by molar mass.

Tests used:
Assay type in all cases: cell-based
[1] = tested on: gastric cancer cell HGC-27; assay: Antitumor function detection, CCK-8 inhibition ratio; details: HGC-27 cells; for The inhibition ratio (%): 72 hours, CCK-8
Method: (§1) Test Method: The logarithmic phase cells were seeded in 96-well plates with 3,000 cells per well/100 μl of density. After the cells were adhered, 100 μl of the test compounds with different concentrations were added. Design 6-8 concentration gradients. Set five parallel wells in per group and set the control group. After the compound and tumor cells were incubated for 72 hours, 10 μl of CCK-8 solution was added in per well. After the cells were incubated for 1-2 hours in the incubator, the optical density (OD) of per well was counted by Universal Microplate Spectrophotometer to calculate the inhibition ratio: inhibition ratio (IR %)=(1−TOD/COD)×100%, TOD: the mean OD of drug administration group, COD: the mean OD of solvent control. The dose-response curve was plotted in accordance to the drugs with different concentrations and the inhibition ratio of cells to obtain the Inhibitory concentration of drug (IC50). Test Method: The logarithmic phase cells were seeded in 96-well plates with 3,000 cells per well/100 l of density. After the cells were adhered, 100 l of the test compounds with different concentrations were added. Design 6-8 concentration gradients. Set five parallel wells in each group and set the control group. After the compound and tumor cells were incubated for 72 hours, 10 µl of CCK-8 solution was added in each well. After the cells were incubated for 1-2 hours in the incubator, the optical density (OD) of per well was counted by Universal Microplate Spectrophotometer to calculate the inhibition ratio: inhibition ratio (IR %)=(1−TOD/COD)×100%, TOD: the mean OD of drug administration group, COD: the mean OD of solvent control. The dose-response curve was plotted in accordance to the drugs with different concentrations and the inhibition ratio of cells to obtain the Inhibitory concentration of drug (IC50). Test Method: The logarithmic phase cells were seeded in 96-well plates with 3,000 cells per well/100 μl of density. After the cells were adhered, 100 μl of the test compounds with different concentrations were added. Design 6-8 concentration gradients. Set five parallel wells in each group and set the control group. After the compound and tumor cells were incubated for 72 hours, 10 µl of CCK-8 solution was added in each well. After the cells were incubated for 1-2 hours in the incubator, the optical density (OD) of per well was counted by Universal Microplate Spectrophotometer to calculate the inhibition ratio: inhibition ratio (IR %)=(1−TOD/COD)×100%, TOD: the mean OD of drug administration group, COD: the mean OD of solvent control. The dose-response curve was plotted in accordance to the drugs with different concentrations and the inhibition ratio of cells to obtain the Inhibitory concentration of drug (IC50). Test Method: The logarithmic phase cells were seeded in 96-well plates with 3,000 cells per well/100 μl of density. After the cells were adhered, 100 μl of the test compounds with different concentrations were added. Design 6-8 concentration gradients. Set five parallel wells in each group and set the control group. After the compound and tumor cells were incubated for 72 hours, 10 µl of CCK-8 solution was added in each well. After the cells were incubated for 1-2 hours in the incubator, the optical density (OD) of per well was counted by Universal Microplate Spectrophotometer to calculate the inhibition ratio: inhibition ratio (IR %)=(1−TOD/COD)×100%, TOD: the mean OD of drug administration group, COD: the mean OD of solvent control. The dose-response curve was plotted in accordance to the drugs with different concentrations and the inhibition ratio of cells to obtain the Inhibitory concentration of drug (IC50).

[2] = tested on: MKN-45; assay: as above; details: MKN-45 cells, 72 hours
Method: as §1

[3] = tested on: SGC-7901; assay: as above; details: SGC-7901 cells, 72 hours
Method: as §1

[4] = tested on: AGS; assay: as above; details: AGS cells, 72 hours
Method: as §1

[5] = tested on: Candida lusitaniae 340928; assay: Anti-fungal function detection, MIC by dilution in RPMI1640; details: Clavispora lusitaniae, Standard fungal strain Candida lusitaniae 340928, incubated for 35 and 24 h, read-out: Minimum Inhibitory Concentration, MIC
Method: (§2) Test Method: The hexadecyl tromethamine hydrochloride salt solution was semi-diluted to five concentration gradients (100 μg/ml, 50 μg/ml, 25 μg/ml, 12.5 μg/ml and 6.25 μg/ml) by RPMI1640 fluid nutrient medium. 100 μl of every gradient solution was added in the 96-well plate for standby application. Standard fungal strain and clinical drug-resistant fungal strain in table 2 were chosen as the experimental fungus. The activation of the experimental fungus was obtained through that the experimental fungus were cultivated for 48 h at 30° C. The activated experimental fungus was matched to fungal suspension. Count and adjust the concentration using blood counting chamber. The moderate fungal suspension were added into RPMI1640 fluid nutrient medium to 0.5-2.5×10^3 cfμ/ml of final working concentration. 100 μl of above fungal suspension was added into the above 96-well plate with the hexadecyl tromethamine hydrochloride salt solution. Two parallel wells were set for each concentration gradient compound of each strain. Blank medium and blank medium with fungal solution were set as control simultaneously.
as §2, with “tromethamine” for “tromethamine hydrochloride salt”
as §2, with “phosphate” for “hydrochloride salt”, “µg/ml)” for “μg/ml)”
(§3) 2. The Anti-Fungal Function Detection of the Hexadecyl Tromethamine Benzene Sulfonate Test Method: The hexadecyl tromethamine benzene sulfonate solution was semi-diluted to five concentration gradients (100 μg/ml, 50 μg/ml, 25 μg/ml, 12.5 μg/ml and 6.25 µg/ml) by RPMI1640 fluid nutrient medium. 100 μl of every gradient solution was added in the 96-well plate for standby application. Standard fungal strain and clinical drug-resistant fungal strain in table 2 were chosen as the experimental fungus. The activation of the experimental fungus was obtained through that the experimental fungus were cultivated for 48 h at 30° C. The activated experimental fungus was matched to fungal suspension. […]

[6] = tested on: Candida tropicalis 191327; assay: as above; details: Clinical drug-resistant fungal strain Candida tropicalis 191327, incubated for 35 and 24 h, read-out: Minimum Inhibitory Concentration, MIC
Method: as §2
as §2, with “tromethamine” for “tromethamine hydrochloride salt”
as §2, with “phosphate” for “hydrochloride salt”, “µg/ml)” for “μg/ml)”
as §3

[7] = tested on: Candida krusei 185429; assay: as above; details: Pichia kudriavzevii, Standard fungal strain Candida krusei 185429, incubated for 35 and 24 h, read-out: Minimum Inhibitory Concentration, MIC
Method: as §2
as §2, with “tromethamine” for “tromethamine hydrochloride salt”
as §2, with “phosphate” for “hydrochloride salt”, “µg/ml)” for “μg/ml)”
as §3

[8] = tested on: Candida glabrata 337348; assay: as above; details: for MIC: Nakaseomyces glabratus, 337348, Standard fungal strain Candida glabrata 337348, incubated for 35 and 24 h, read-out: Minimum Inhibitory Concentration, MIC
Method: as §2
as §2, with “tromethamine” for “tromethamine hydrochloride salt”
as §2, with “phosphate” for “hydrochloride salt”, “µg/ml)” for “μg/ml)”
as §3

[9] = tested on: Candida parapsilosis 191344; assay: as above; details: for MIC: Lodderomyces parapsilosis, 191344, Clinical drug-resistant fungal strain Candida parapsilosis 191344, incubated for 35 and 24 h, read-out: Minimum Inhibitory Concentration, MIC
Method: as §2
as §2, with “tromethamine” for “tromethamine hydrochloride salt”
as §2, with “phosphate” for “hydrochloride salt”, “µg/ml)” for “μg/ml)”
as §3

[10] = tested on: Candida tropicalis 191529; assay: as above; details: Clinical drug-resistant fungal strain Candida tropicalis 191529, incubated for 35 and 24 h, read-out: Minimum Inhibitory Concentration, MIC
Method: as §2
as §2, with “tromethamine” for “tromethamine hydrochloride salt”
as §2, with “phosphate” for “hydrochloride salt”, “µg/ml)” for “μg/ml)”
as §3

## CCCCCCCCCCCCCCCCNC(CO)(CO)CO.Cl [2-(hexadecylamino)-2-(hydroxymethyl) propane-1,3-diol hydrochloride]
[1]; 2 μM
  The inhibition ratio (%): 72%
[1]; 20 μM
  The inhibition ratio (%): 101%
[1]; rises rapidly when the logarithmic value of compound concentration reached 3 nM
  inhibitory effect (level reached on the inhibition curve, FIG. 3): 100%
[2]; 2 μM
  The inhibition ratio (%): 31%
[2]; 20 μM
  The inhibition ratio (%): 99%
[3]; 2 μM
  The inhibition ratio (%): 21%
[3]; 20 μM
  The inhibition ratio (%): 100%
[4]; 2 μM
  The inhibition ratio (%): 42%
[4]; 20 μM
  The inhibition ratio (%): 99%
[5]
  MIC: 25 µg/mL
[6]
  MIC: 25 µg/mL
[7]
  MIC: 50 µg/mL
[8]
  MIC: 25 µg/mL
[9]
  MIC: 25 µg/mL
[10]
  MIC: 25 µg/mL

## CCCCCCCCCCCCCCCCNC(CO)(CO)CO.O=S(=O)(O)c1ccccc1 [hexadecyl tromethamine benzene sulfonate]
[1]; 2 μM
  The inhibition ratio (%): 62%
[1]; 20 μM
  The inhibition ratio (%): 96%
[2]; 2 μM
  The inhibition ratio (%): 34%
[2]; 20 μM
  The inhibition ratio (%): 100%
[3]; 2 μM
  The inhibition ratio (%): 23%
[3]; 20 μM
  The inhibition ratio (%): 98%
[4]; 2 μM
  The inhibition ratio (%): 38%
[4]; 20 μM
  The inhibition ratio (%): 95%
[5]
  MIC: 25 µg/mL
[6]
  MIC: 50 µg/mL
[7]
  MIC: 100 µg/mL
[8]
  MIC: 25 µg/mL
[9]
  MIC: 50 µg/mL
[10]
  MIC: 50 µg/mL

## CCCCCCCCCCCCCCCCNC(CO)(CO)CO [hexadecyl tromethamine phosphate]
[1]; 2 μM, phosphate
  The inhibition ratio (%): 68%
[1]; 20 μM, phosphate
  The inhibition ratio (%): 99%
[2]; 2 μM, phosphate
  The inhibition ratio (%): 29%
[2]; 20 μM, phosphate
  The inhibition ratio (%): 97%
[3]; 2 μM, phosphate
  The inhibition ratio (%): 25%
[3]; 20 μM, phosphate
  The inhibition ratio (%): 101%
[4]; 2 μM, phosphate
  The inhibition ratio (%): 44%
[4]; 20 μM, phosphate
  The inhibition ratio (%): 100%
[8]; Standard fungal strain Candida glabrata 337348, incubated for 35 and 24 h, phosphate
  Minimum Inhibitory Concentration, MIC: 50 µg/mL
[9]; Clinical drug-resistant fungal strain Candida parapsilosis 191344, incubated for 35 and 24 h, phosphate
  Minimum Inhibitory Concentration, MIC: 50 µg/mL

## CCCCCCCCCCCCCCCCNC(CO)(CO)CO [hexadecyl tromethamine]
[1]; 2 μM
  The inhibition ratio (%): 72%
[1]; 20 μM
  The inhibition ratio (%): 100%
[2]; 2 μM
  The inhibition ratio (%): 32%
[2]; 20 μM
  The inhibition ratio (%): 98%
[3]; 2 μM
  The inhibition ratio (%): 24%
[3]; 20 μM
  The inhibition ratio (%): 102%
[4]; 2 μM
  The inhibition ratio (%): 43%
[4]; 20 μM
  The inhibition ratio (%): 99%
[5]
  MIC: 25 µg/mL (≈ 72.3 µM)
[6]
  MIC: 25 µg/mL (≈ 72.3 µM)
[7]
  MIC: 50 µg/mL (≈ 145 µM)
[8]
  MIC: 25 µg/mL (≈ 72.3 µM)
[9]
  MIC: 25 µg/mL (≈ 72.3 µM)
[10]
  MIC: 25 µg/mL (≈ 72.3 µM)
